Results taken from patent publication US7368137B2, “Smilagenin and its use” (priority 1999, dated 2008).

Tests used:
[1] = tested on: m2 receptors on CHO cells; test: Expression of m2 receptors on CHO cells transfected with DNA for the m2 receptor (tritiated QNB binding); assay type: cell-based; settings: for Effect on receptor expression - given as % increase compared to control (negative values in brackets): DMSO control, NS = No significant effect
Description: 1. Chinese hamster ovary (CHO) cells transfected with the a DNA fragment coding for a muscarinic receptor. The cell line used-for the majority of the experiments was a cell line expressing the m2 receptor.
The-effects of various compounds on the expression of m2 receptors on CHO cells transfected with DNA for the m2 receptor were investigated. Receptor numbers were assayed using tritiated QNB binding and subtracting non-specific binding. Compounds were dissolved in DMSO and DMSO was used as a control. Compounds were tested at a range of final concentrations. Compounds were also tested in the presence and absence of tamoxifen to try to distinguish an oestrogen receptor mediated mechanism. The results are summarized in the Table 2 below, where the compound used in the invention appears in bold, and data on other sapogenins is given for comparative purposes: […]

[2] = tested on: muscarinic receptors on cultured cardiac muscle cells; test: Muscarinic receptor expression on cultured neonatal cardiac muscle cells (tritiated QNB binding); assay type: cell-based, Sprague Dawley rats; settings: NS = No significant effect
muscarinic receptors on cultured cardiac muscle cells, sequence (P10980 whole entry): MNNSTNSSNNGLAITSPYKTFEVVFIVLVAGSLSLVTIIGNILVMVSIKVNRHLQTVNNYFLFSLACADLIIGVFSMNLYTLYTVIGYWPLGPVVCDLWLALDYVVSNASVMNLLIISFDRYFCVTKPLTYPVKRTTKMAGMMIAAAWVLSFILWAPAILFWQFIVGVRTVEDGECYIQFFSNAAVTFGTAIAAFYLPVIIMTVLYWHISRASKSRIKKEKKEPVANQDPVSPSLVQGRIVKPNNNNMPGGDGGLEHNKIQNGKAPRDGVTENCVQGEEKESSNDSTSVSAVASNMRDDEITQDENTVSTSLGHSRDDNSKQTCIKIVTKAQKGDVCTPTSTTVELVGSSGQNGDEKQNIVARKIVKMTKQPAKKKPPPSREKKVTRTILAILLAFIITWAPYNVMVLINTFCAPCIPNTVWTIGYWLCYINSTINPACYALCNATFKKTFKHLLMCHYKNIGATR
Description: 3. Cultured cardiac muscle cells obtained from neonatal Sprague Dawley rats. The cardiac muscle cells express muscarinic receptors, typically m2. The level of these receptors fails on prolonged culture and the effects of compounds of interest in preventing the fall in receptor numbers was investigated.
Cardiac muscle cells were isolated from the ventricular muscle of neonatal Sprague Dawley rats using standard techniques. Cells were cultured in vitro and muscarinic receptor numbers expressed on cell surfaces membrane fragments after homogenization of cells harvested at various time points were estimated using specific binding of tritiated QNB. […] The experiments were therefore designed to investigate the effects of the various compounds in inhibiting this decline in receptor numbers.

[3] = tested on: oestrogen receptor; test: Oestrogenic activity
Source text: (§1) In identifying compounds that would have use in the treatment of SDAT and other diseases characterized by reductions in receptor numbers or synaptic transmission, the inventors have given consideration to the need to identify compounds that would-have the desired effect but would be devoid of any oestrogenic effects, as these would be unacceptable, particularly in male patients. A number of the compounds claimed to have activity in patent application DE 4303214A1 have marked oestrogenic activity and are therefore unacceptable.

[4] = target: T1, Progesterone receptor (Homo sapiens, UniProt P06401); test: Activity at steroid receptors: progesterone
T1 sequence (P06401 1-933): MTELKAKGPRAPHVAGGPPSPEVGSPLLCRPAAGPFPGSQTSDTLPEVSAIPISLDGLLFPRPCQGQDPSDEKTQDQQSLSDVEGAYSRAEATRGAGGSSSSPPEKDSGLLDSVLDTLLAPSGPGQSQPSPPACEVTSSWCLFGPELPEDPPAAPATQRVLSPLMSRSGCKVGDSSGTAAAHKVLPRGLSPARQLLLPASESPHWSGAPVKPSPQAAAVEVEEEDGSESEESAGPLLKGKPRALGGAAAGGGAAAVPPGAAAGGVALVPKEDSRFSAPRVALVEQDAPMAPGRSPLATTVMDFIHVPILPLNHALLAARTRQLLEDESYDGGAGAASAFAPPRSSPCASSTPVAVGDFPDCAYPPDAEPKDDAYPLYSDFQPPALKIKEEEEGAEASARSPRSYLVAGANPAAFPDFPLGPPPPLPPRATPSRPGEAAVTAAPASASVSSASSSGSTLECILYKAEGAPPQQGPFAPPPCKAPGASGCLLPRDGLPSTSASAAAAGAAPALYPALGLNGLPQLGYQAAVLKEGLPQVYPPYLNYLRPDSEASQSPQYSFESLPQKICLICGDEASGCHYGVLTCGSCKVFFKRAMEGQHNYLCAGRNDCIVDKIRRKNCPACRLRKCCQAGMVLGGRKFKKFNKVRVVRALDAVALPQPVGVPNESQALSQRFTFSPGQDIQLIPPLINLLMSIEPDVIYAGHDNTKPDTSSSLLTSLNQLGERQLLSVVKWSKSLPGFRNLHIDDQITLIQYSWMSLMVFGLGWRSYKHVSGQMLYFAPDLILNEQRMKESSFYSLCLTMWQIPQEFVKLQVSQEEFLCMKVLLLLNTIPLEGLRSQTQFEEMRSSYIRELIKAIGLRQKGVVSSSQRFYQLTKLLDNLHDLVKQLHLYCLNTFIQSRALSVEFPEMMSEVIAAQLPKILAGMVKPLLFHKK
Source text: as §1

[5] = target: T2, Glucocorticoid receptor (Homo sapiens, UniProt P04150); test: Activity at steroid receptors: glucocorticoid
T2 sequence (P04150 1-777): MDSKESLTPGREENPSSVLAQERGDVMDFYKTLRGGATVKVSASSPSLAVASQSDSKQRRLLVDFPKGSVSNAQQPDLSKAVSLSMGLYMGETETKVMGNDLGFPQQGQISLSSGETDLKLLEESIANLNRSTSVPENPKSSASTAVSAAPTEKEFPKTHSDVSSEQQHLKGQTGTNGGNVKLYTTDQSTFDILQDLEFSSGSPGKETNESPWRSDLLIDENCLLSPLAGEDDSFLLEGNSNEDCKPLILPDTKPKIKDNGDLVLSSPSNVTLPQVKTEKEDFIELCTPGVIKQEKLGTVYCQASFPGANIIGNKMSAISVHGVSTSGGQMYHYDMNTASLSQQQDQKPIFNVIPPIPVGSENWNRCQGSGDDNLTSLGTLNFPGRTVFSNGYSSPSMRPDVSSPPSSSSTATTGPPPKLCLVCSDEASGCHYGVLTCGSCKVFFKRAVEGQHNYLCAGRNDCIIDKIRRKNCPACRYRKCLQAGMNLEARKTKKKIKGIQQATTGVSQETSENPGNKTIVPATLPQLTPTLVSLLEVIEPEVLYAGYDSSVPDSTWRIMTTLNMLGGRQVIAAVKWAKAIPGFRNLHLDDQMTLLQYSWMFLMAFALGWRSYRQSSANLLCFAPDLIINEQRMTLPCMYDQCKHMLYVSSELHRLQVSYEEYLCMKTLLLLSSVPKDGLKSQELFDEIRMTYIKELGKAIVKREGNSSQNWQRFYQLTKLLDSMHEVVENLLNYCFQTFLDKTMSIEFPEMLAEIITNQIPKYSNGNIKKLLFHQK
Source text: as §1

[6] = target: T3, Testosterone receptor (Homo sapiens, UniProt P10275); test: Activity at steroid receptors: testosterone
T3 sequence (P10275 1-920): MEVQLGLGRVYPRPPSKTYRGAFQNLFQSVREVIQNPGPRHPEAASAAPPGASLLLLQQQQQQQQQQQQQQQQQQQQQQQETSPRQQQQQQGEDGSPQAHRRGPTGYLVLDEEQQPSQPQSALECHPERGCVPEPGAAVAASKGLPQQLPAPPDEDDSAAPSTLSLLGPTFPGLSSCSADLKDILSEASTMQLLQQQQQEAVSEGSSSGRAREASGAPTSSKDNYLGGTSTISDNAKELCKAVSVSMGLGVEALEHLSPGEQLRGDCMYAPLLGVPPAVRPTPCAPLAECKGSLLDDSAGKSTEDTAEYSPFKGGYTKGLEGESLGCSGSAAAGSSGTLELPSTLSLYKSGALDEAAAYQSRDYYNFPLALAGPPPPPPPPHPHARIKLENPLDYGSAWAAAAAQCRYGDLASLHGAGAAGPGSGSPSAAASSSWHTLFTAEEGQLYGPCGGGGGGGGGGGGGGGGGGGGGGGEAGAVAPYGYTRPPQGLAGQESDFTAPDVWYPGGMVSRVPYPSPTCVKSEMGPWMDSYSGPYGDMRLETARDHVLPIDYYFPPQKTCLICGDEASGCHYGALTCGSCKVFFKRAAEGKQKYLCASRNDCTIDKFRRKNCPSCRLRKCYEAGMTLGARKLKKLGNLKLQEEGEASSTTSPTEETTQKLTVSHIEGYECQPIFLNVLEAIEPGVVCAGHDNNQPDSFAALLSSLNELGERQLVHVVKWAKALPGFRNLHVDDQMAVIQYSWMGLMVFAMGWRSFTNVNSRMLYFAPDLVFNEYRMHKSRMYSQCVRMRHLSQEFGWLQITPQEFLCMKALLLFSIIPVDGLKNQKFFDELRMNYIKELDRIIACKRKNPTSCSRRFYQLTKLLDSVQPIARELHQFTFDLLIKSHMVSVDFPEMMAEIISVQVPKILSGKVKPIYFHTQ
Source text: as §1

[7] = tested on: muscarinic receptors in PC12 cells; test: Muscarinic receptor number in PC12 cells incubated with β-amyloid (radio-labeled ligand binding); assay type: cell-based
Description: Other in vitro assays have been employed to establish the effects of smilagenin. In particular various neuroblastoma cell lines including SKN-SN and SH-SY5Y cells as well as phaechromoacytoma cell lines have been cultured in vitro in the presence of β-amyloid fragments or serum depletion. […] These techniques included Trypan blue exclusion, chemiluminescence and release of lactate dehydrogenase. Of most interest was the observation that incubation of cells, in particular PC12 cells, with β-amyloid reduced the number of muscarinic receptors measured using radio-labeled ligand binding techniques.

[8] = tested on: recombinant human muscarinic receptors in CHO cells; test: Muscarinic receptor density in CHO cells expressing recombinant human muscarinic receptors ([3H]-QNB); assay type: cell-based; settings: smilagenin at 1 and 10 μM; FIG. 2
Description: In a CHO cell line expressing recombinant human muscarinic receptors in vitro, the number of muscarinic receptors tends to decline with time. Smilagenin (1-10 μM) incubated for 72 hours increases muscarinic receptor density.
Effect of smilagenin on muscarinic receptor density in CHO cells expressing recombinant human muscarinic receptors.
Chinese hamster ovary (CHO) cells expressing high levels of receptor (˜2.2 pmoles receptor/mg protein) were cultured in flasks (150 ml) for 24 hours before the start of the experiment. Vehicle (DMSO) and smilagenin (at 1 and 10 μM) were added to the medium for 48 h. The culture medium was discarded, the cells scraped off and resuspended in Hanks solution, centrifuged and m-receptor levels determined by incubating with [^3H]-QNB for 30 min followed by liquid scintillation counting. Protein levels were determined by a micro Lowry method.

[9] = tested on: muscarinic (M) receptor in the brain; test: Single point analysis of brain M receptor density in aged rats; assay type: in vivo, Sprague-Dawley rats; settings: 18 mg/kg/day in chow over 3 months; 23-month-old rats; FIG. 3
Description: Methods: Single point analysis of brain M receptor density.
Sprague-Dawley rats, 23-month-old, (i.e. aged) were divided into 2 groups, aged-control and aged+smilagenin. Smilagenin (18 mg/kg/day) was mixed in the chow over the 3 month period; Male 4-6 month old rats acted as young controls. At the end of the 3-month treatment period, pairs of treated and control animals were sacrificed by cervical dislocation and the intact brain removed. Single point analysis of brain M receptor density was obtained.

[10] = tested on: aged Sprague-Dawley rats; test: Cognitive function in the Y-maze test in aged rats; assay type: in vivo; settings: 18 mg/kg/day in chow, 3 months intake; rats aged 23 months; FIG. 4
Description: Methods: Cognitive function in the Y-maze test
Sprague-Dawley rats aged 23 months (i.e. aged) were divided into aged-control or aged+smilagenin treatment group. Rats aged 3 to 4 months acted as young controls. The treatment group received 18 mg/kg/day of smilagenin in chow. Chow without smilagenin was given to each rat after the chow containing smilagenin had been consumed. Three months later the animals were tested in the Y-maze as follows; an equilateral Y-shaped maze was used composed of three 45 cm arms with copper rods in the floor at the end of each arm which conduct electricity and which were 0.2 cm in diameter, 14 cm in length and with a 1 cm gap between them. There were 15 W signal lights at each end. A safe region was indicated by a light signal in an arm where there was no electricity. If a rat moved to a safe region, a correct reaction was recorded. If it moved to an arm where there was no light, an error reaction was recorded. Following the response, an electric shock was again given after a 5 seconds interval. Twenty trials in total were conducted and the correct reaction rate was obtained: number of correct reactions/(20)/mean response time. Seven such training sessions were completed over seven days. Memory tests were then repeated 15 and 30 days later (=4 months) using the same techniques as just described.

[11] = molar concentration of compound 10^−5

m2 receptors on CHO cells, sequence (P08172 whole entry, the tested form may be a part): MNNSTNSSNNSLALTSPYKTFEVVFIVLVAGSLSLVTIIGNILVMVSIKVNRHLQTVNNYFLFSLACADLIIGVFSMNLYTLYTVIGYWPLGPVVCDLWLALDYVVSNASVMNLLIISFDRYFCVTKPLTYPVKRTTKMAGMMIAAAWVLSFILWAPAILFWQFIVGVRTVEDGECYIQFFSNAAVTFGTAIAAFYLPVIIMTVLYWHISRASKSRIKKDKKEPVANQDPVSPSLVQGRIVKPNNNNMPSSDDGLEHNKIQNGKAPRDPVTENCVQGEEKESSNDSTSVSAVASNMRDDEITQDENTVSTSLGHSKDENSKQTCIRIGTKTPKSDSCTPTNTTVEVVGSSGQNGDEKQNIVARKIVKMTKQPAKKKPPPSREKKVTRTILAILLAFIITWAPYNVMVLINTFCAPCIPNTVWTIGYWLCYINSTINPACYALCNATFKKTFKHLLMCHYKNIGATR

Molecule | Effect on receptor expression - given as % increase compared to control (negative values in brackets) [1, 11] | Concentration of compound causing a significant increase in number of receptors expressed on neonatal cardiac muscle after 10 days in vitro culture [2] | Effect on receptor expression - given as % increase compared to control (negative values in brackets) ([1]; molar concentration of compound 10^−6) | Effect of tamoxifen on the increase in muscarinic receptor number on CHO cells ([1]; tested in the presence and absence of tamoxifen) | Oestrogenic activity [3] | Activity at progesterone receptor [4] | Activity at glucocorticoid receptor [5] | Activity at testosterone receptor [6] | Effect on β-amyloid-induced reduction in muscarinic receptor numbers [7] | Effect on muscarinic receptor number/density over the culturing period [8] | Brain M receptor numbers compared to aged controls [9] | Cognitive function (learning and memory performance) in Y-maze [10]
C[C@@H]1CC[C@@]2(OC1)O[C@H]1C[C@H]3[C@@H]4C[C@@H](O)[C@@]5(O)C[C@@H](O)CC[C@]5(C)[C@H]4CC[C@]3(C)[C@H]1[C@@H]2C [Anzurogenin D, reference compound] | 22% | 10^−6M | – | – | – | – | – | – | – | – | – | –
Astragaloside | – | 10^−5M | – | – | – | – | – | – | – | – | – | –
smilagenin | 57% | 10^−6M | 18% | not antagonized by tamoxifen | does not display oestrogenic activity | no activity | no activity | no activity | ameliorated | prevents the decrease in muscarinic receptor number in a concentration-dependent manner | increased M receptor numbers | reversed the decline in cognitive function
